{"source": "patent US20260294874A1", "about": "“COMPOSITIONS COMPRISING MODULATORS OF RIBONUCLEOPROTEIN GRANULE FORMATION AND DISSOLUTION AND METHODS OF USE THEREOF” (University of Virginia Patent Foundation, priority 2023, published 2026)", "key": {"[1]": {"tested_on": "P-bodies (EDC4 foci) in HEK293T cells", "assay": "Immunofluorescence phenotypic screen for P-bodies (α-EDC4) in glucose-deprived HEK293T cells", "type": "cell-based", "conditions": "glucose-deprived HEK293T cells, 25 μM, 2 h", "method": "SuTEx compound treatments. Prior to treatments, cells were washed twice with warm phosphate-buffered saline (PBS) and exchanged with serum-free DMEM (supplemented with 1% L-glutamine) for at least 30 minutes at 37° C. with 5% CO2. Compounds were then added as 1000×DMSO stocks (10 μL for 10 cm dishes and 3 μL for 6-well dishes), plates were mixed gently, and cells were incubated for two hours. All compounds were thoroughly vortexed and sonicated for five minutes prior to addition to ensure complete solvation. For microscopy experiments, cultures were seeded at 150,000 cells in 3 mL of DMEM in 6-well THERMO SCIENTIFIC™ BIOLITE™ brand microwell plates (Catalog No. 12556004; Thermo Fisher Scientific Inc., Waltham, Massachusetts. United States of America). For collection, media was aspirated, and cells were washed once with cold PBS before scraping from plates. Cells were centrifuged at 500×g at 4° C. for 5 minutes and supernatant was removed. Cell pellets were resuspended in cold PBS (1 mL) and centrifuged at 1,400×g at 4° C. for 3 minutes. Supernatant was again removed, and pellets were then snap-frozen in liquid nitrogen and stored at −80° C. until needed.\nImmunofluorescence. Immunofluorescence (IF) of HEK293T cells was performed as previously described in Ciancone et al., 2022. HeLa cells were seeded at 9.0×10^4 in a 24-well plate with 12-mm glass coverslips. The next day, the cells were treated with 25 μM SuTEx probe for 2 hours in DMEM medium without FBS. The cells were then treated with 75 μM NaAsO2 for 30 minutes and fixed with 3% paraformaldehyde in PBS for 15 minutes at room temperature (RT) and washed with PBS twice. The fixed cells were permeabilized with PBST (0.1% Triton X-100) for 15 minutes at room temperature and blocked with 5% goat serum in PBST for 30 minutes at RT. The cells were incubated with anti-G3BP1 antibody H-10 (Catalog No. sc-365338 at 1:200 dilution; Santa Cruz Biotechnology, Inc., Dallas, Texas, United States of America) for 2 hours at RT and washed with PBST (0.1% Tween-20) for 5 minutes three times. Next, cells were incubated with goat anti-mouse Alexa 594 antibody (Catalog No. 115-585-003 at 1:800 dilution; Jackson ImmunoResearch, West Grove, Pennsylvania, United States of America) for 30 minutes at RT. The cells were washed twice with PBST, stained with Hoechst 33342 (Catalog No. H3570 at […]; Thermo Fischer Scientific) in PBST for 5 minutes, and washed with PBS twice for 5 minutes. The coverslips were mounted in PROLONG™ Gold AntiFade Mountant (Catalog No. P36930, Thermo Fisher Scientific) and imaged using NIS Elements AR software and a Nikon Eclipse Ti microscope equipped with a ×100 objective and CMOS camera. […] A CellProfiler pipeline was developed to quantify the number of stress granules under each condition. Briefly, cells were recognized as blue^+ (nuclei) red^+ (G3BP1) objects, and the red^+ granules that meet the shape and size threshold were identified and counted. Cells on the border of linages were excluded from the analysis for more accurate quantification.\nData Analysis—Microscopy. All slides were blinded for imaging. Leica SP5X images were analyzed using Fiji (ImageJ). Custom macros were written for analysis and can be obtained upon request. To elaborate, images were split into channels based on the different laser wavelengths measured. Image stacks were then combined using ‘Z-Project’ with an average intensity parameter and a threshold was applied to exclude noise based on the negative control (no EDC4 antibody). The ‘Analyze Particles’ function was used with relevant size and circularity constraints (0.85-1.00) to count the number of foci, with total PBs having a diameter of >150 nm, and large PBs>450 nm. The number of foci was normalized to the number of cells (defined by a DAPI stain count) in each linage, and the number of foci per cell was averaged across technical replicates. Every sample had at least two technical replicates and two independent biological replicates. […]"}, "[2]": {"assay": "Lipophilic efficiency calculation (cLogP from ChemDraw)", "conditions": "from IC50 (AHL-030) or EC50 (HHS-166) and cLogP", "method": "Lipophilic efficiency calculations for AHL-030 and HHS-166. Lipophilic efficiency was calculated as previously described in Leeson & Springthorpe, 2007 using IC50 (AHL-030) and EC50 (HHS-166) potency values from experiments and c Log P values from ChemDraw (Version 20.0.0.41 on a Windows PC): […]"}, "[3]": {"tested_on": "G3BP1 WT-rescued G3BP KO cells", "assay": "SG formation in G3BP KO U20S cells rescued with G3BP1 WT", "type": "cell-based", "conditions": "2 h; for inhibition at 25 µM: G3BP1 WT-rescued G3BP KO U20S cells, read-out: reduction in SGs/cell; for effect on SG formation (in words): G3BP1 WT-rescued G3BP KO cells, 25 μM", "method": "G3BP KO and rescue studies. U20S G3BP1/2 double knockout (G3BP KO) cell-line was a kind gift from the C. Brangwynne lab (Princeton University, Princeton, New Jersey, United States of America) and generated as previously described in Kedersha et al., 2016. G3BP KO cells were seeded at 9.0×10^4 in a 24-well plate with 12-mm glass coverslips. Next day, the cells were transfected with […] vectors with 1 μg/mL tetracycline and LIPOFECTAMINE™ 3000 brand transfection reagent according to the manufacturer's protocol (Thermo Fisher Scientific). 20 hours post-transfection, the cells were treated with 25 μM SuTEx probes for 2 hours in DMEM medium without FBS. The cells were then treated with 75 μM NaAsO2 for 30 minutes and fixed with 3% paraformaldehyde in PBS for 15 minutes at RT and washed with PBS twice. The same protocols for IF of HeLa cells and quantification of G3BP1-positive SGs described above were followed thereafter.\nTo determine whether the cell biological effects mediated by HHS-166 were Y40-dependent, we expressed recombinant G3BP1 WT or Y40 mutant in previously established G3BP1/2 double knockout U20S (G3BP KO) cells (Kedersha et al., 2016; Sanders et al., 2020) and evaluated the resulting effects on SG response to [COMPOUND LEFT OUT]. We compared SG response of G3BP KO cells expressing a G3BP1 Y40 covalent binding- and phospho-deficient mutant (Y40F) with a phosphomimetic counterpart (Y40E). G3BP KO cells were previously shown to be deficient in [COMPOUND LEFT OUT]-induced SG formation (Sanders et al., 2020). Expression of G3BP1 WT rescued this deficiency and restored cellular SG response to [COMPOUND LEFT OUT] [1.6 vs 11 SGs/cell in (−)[COMPOUND LEFT OUT] vs (+)[COMPOUND LEFT OUT], respectively; FIGS. 6A and 6B]."}}, "note": "Entries after “also recorded” stand apart in the source; their conditions may differ."}
{"compound": "CC(C)c1cc(C(C)C)c(S(=O)(=O)n2cc(-c3ccc(C(F)(F)F)cc3)nn2)c(C(C)C)c1", "note": "[AHL-003]", "values": [{"measurement": "effect on PBs (in words)", "setting": "[1]", "result": "block both types of RNP granules; also recorded: inhibited"}]}
{"compound": "COc1ccc(S(=O)(=O)n2cc(CS(C)(=O)=O)nn2)cc1", "note": "[AHL-030, 1-((4-Methoxyphenyl)sulfonyl)-4-((methylsulfonyl)methyl)-1H-1,2,3-triazole]", "values": [{"measurement": "effect on PBs (in words)", "setting": "[1]", "result": "PB-inhibitory; also recorded: modestly inhibiting PBs; also recorded: decreased PBs"}, {"measurement": "LipE (lipophilic efficiency)", "setting": "[2]", "result": 7}]}
{"compound": "N#Cc1ccc(S(=O)(=O)n2cc(-c3cccc(Cl)c3)nn2)cc1", "note": "[EKT231, 4-((4-(3-Chlorophenyl)-1H-1,2,3-triazol-1-yl)sulfonyl)benzonitrile]", "values": [{"measurement": "inhibition at 25 µM", "setting": "[3]", "result": "9 to 13", "unit": "%"}, {"measurement": "effect on SG formation (in words)", "setting": "[3]", "result": "not observed; also recorded: inactive"}]}
{"compound": "COc1ccc(S(=O)(=O)n2cc(C3CCCCC3)nn2)cc1", "note": "[HHS-166, 4-Cyclohexyl-1-((4-methoxyphenyl)sulfonyl)-111-1,2,3-triazole]", "values": [{"measurement": "inhibition at 25 µM", "setting": "[3]", "result": 57, "unit": "%"}, {"measurement": "effect on SG formation (in words)", "setting": "[3]", "result": "statistically significant decrease in SGs; also recorded: blocked; also recorded: statistically significant decreases in SG formation"}, {"measurement": "LipE (lipophilic efficiency)", "setting": "[2]", "result": 3}]}
